Source: ChEMBL document CHEMBL3272271, “Folate antagonists. 13. 2,4-Diamino-6-](alpha,alpha,alpha-trifluoro-m-tolyl)thio]quinazoline and related 2,4-diamino-6-[(phenyl- and naphthyl)thio]quinazolines, a unique class of antimetabolites with extraordinary antimalarial and antibacterial effects” (J Med Chem, 1978)
≈ marks a conversion by molar mass, not a printed value. Calls of active or inactive are those of the source. No cut-off for these calls is given here.

How the values were obtained:
Plasmodium gallinaceum [1] = test: Antimalarial activity against trophozoite-induced Plasmodium gallinaceum infected in white leghorn chicken assessed as disease cure from parasite infection at 20 mg/kg, sc administered 72 hrs after infection; type: functional, organism-based; parameters: dose 20 mg/kg
Plasmodium gallinaceum [2] = test: Antimalarial activity against trophozoite-induced Plasmodium gallinaceum infected in white leghorn chicken assessed as disease cure from parasite infection at 10 mg/kg, sc administered 72 hrs after infection; type: functional, organism-based; parameters: dose 10 mg/kg
Plasmodium falciparum [3] = test: Antimalarial activity against chloroquine-susceptible, pyrimethamine-resistant Plasmodium falciparum Malayan Camp infected in Aotus trivirgatus owl monkey model assessed as cure from parasite infection at >2.5 mg/kg, po qd for 7 days relative to control; type: functional
Plasmodium falciparum [4] = test: Antimalarial activity against pyrimethamine-sensitive Plasmodium falciparum Vietnam Oak Knoll infected in Aotus trivirgatus owl monkey model assessed as cure from parasite infection at 0.098 to 1.56 mg/kg, po qd for 7 days relative to control; type: functional; conditions: dose mg/kg 0.098-1.56
Plasmodium falciparum [5] = test: Antimalarial activity against pyrimethamine-sensitive Plasmodium falciparum Vietnam Oak Knoll infected in Aotus trivirgatus owl monkey model assessed as cure from parasite infection at 0.6 mg/kg, po qd for 7 days relative to control; type: functional
Enterococcus faecalis = test: Antibacterial activity against Streptococcus faecalis MGH-2 by gradient plate test; type: functional
Staphylococcus aureus [6] = test: Antibacterial activity against Staphylococcus aureus UC-96 by gradient plate test; type: functional
Staphylococcus aureus [7] = test: Antibacterial activity against drug-resistant Staphylococcus aureus S18713 by gradient plate test; type: functional
Pseudomonas aeruginosa = test: Antibacterial activity against Pseudomonas aeruginosa 28 by gradient plate test; type: functional
Escherichia coli = test: Antibacterial activity against Escherichia coli Vogel by gradient plate test; type: functional
Shigella sonnei = test: Antibacterial activity against Shigella sonnei C-10 by gradient plate test; type: functional
Plasmodium gallinaceum [8] = test: Antimalarial activity against sporozoite-induced Plasmodium gallinaceum infected in white leghorn chicken assessed as disease cure from parasite infection at 480 mg/kg, sc administered 72 hrs after infection; type: functional, organism-based; parameters: dose 480 mg/kg
Plasmodium gallinaceum [9] = test: Antimalarial activity against sporozoite-induced Plasmodium gallinaceum infected in white leghorn chicken assessed as disease cure from parasite infection at 240 mg/kg, sc administered 72 hrs after infection; type: functional, organism-based; parameters: dose 240 mg/kg
Plasmodium gallinaceum [10] = test: Antimalarial activity against sporozoite-induced Plasmodium gallinaceum infected in white leghorn chicken assessed as disease cure from parasite infection at 120 mg/kg, sc administered 72 hrs after infection; type: functional, organism-based; parameters: dose 120 mg/kg
Plasmodium gallinaceum [11] = test: Antimalarial activity against sporozoite-induced Plasmodium gallinaceum infected in white leghorn chicken assessed as disease cure from parasite infection at 60 mg/kg, sc administered 72 hrs after infection; type: functional, organism-based; parameters: dose 60 mg/kg
Plasmodium gallinaceum [12] = test: Antimalarial activity against sporozoite-induced Plasmodium gallinaceum infected in white leghorn chicken assessed as disease cure from parasite infection at 30 mg/kg, sc administered 72 hrs after infection; type: functional, organism-based; parameters: dose 30 mg/kg
Plasmodium gallinaceum [13] = test: Antimalarial activity against sporozoite-induced Plasmodium gallinaceum infected in white leghorn chicken assessed as disease cure from parasite infection at 15 mg/kg, sc administered 72 hrs after infection; type: functional, organism-based; parameters: dose 15 mg/kg
Plasmodium berghei [14] = test: Antimalarial activity against Plasmodium berghei infected in mouse assessed as increase in mean survival days of host at 10 mg/kg, sc administered 72 hrs after infection relative to control; type: functional; conditions: route subcutaneous
Plasmodium berghei [15] = test: Antimalarial activity against chloroquine-resistant Plasmodium berghei assessed as drug resistance; type: functional, organism-based
Plasmodium berghei [16] = test: Antimalarial activity against cycloguanil-resistant Plasmodium berghei assessed as drug resistance; type: functional, organism-based
Plasmodium falciparum [17] = test: Antimalarial activity against chloroquine-susceptible, pyrimethamine-resistant Plasmodium falciparum Malayan Camp infected in Aotus trivirgatus owl monkey model assessed as cure from parasite infection at 0.39 to 5 mg/kg, po qd for 7 days relative to control; type: functional; conditions: dose mg/kg 0.39-5
Plasmodium berghei [18] = test: Antimalarial activity against Plasmodium berghei infected in mouse assessed as increase in mean survival days of host at 5 mg/kg, sc administered 72 hrs after infection relative to control; type: functional; conditions: route subcutaneous
Plasmodium berghei [19] = test: Antimalarial activity against Plasmodium berghei infected in mouse assessed as increase in mean survival days of host at 2.5 mg/kg, sc administered 72 hrs after infection relative to control; type: functional; conditions: route subcutaneous
Plasmodium berghei [20] = test: Antimalarial activity against Plasmodium berghei infected in mouse assessed as increase in mean survival days of host at 1.25 mg/kg, sc administered 72 hrs after infection relative to control; type: functional; conditions: route subcutaneous
Plasmodium berghei [21] = test: Antimalarial activity against Plasmodium berghei infected in mouse assessed as disease cure from parasite infection at 640 mg/kg, sc administered 72 hrs after infection; type: functional, organism-based; parameters: dose 640 mg/kg
Plasmodium berghei [22] = test: Antimalarial activity against Plasmodium berghei infected in mouse assessed as disease cure from parasite infection at 320 mg/kg, sc administered 72 hrs after infection; type: functional, organism-based; parameters: dose 320 mg/kg
Plasmodium berghei [23] = test: Antimalarial activity against Plasmodium berghei infected in mouse assessed as disease cure from parasite infection at 160 mg/kg, sc administered 72 hrs after infection; type: functional, organism-based; parameters: dose 160 mg/kg
Plasmodium berghei [24] = test: Antimalarial activity against Plasmodium berghei infected in mouse assessed as disease cure from parasite infection at 80 mg/kg, sc administered 72 hrs after infection; type: functional, organism-based; parameters: dose 80 mg/kg
Plasmodium berghei [25] = test: Antimalarial activity against Plasmodium berghei infected in mouse assessed as disease cure from parasite infection at 40 mg/kg, sc administered 72 hrs after infection; type: functional, organism-based; parameters: dose 40 mg/kg
Plasmodium berghei [26] = test: Antimalarial activity against Plasmodium berghei infected in mouse assessed as disease cure from parasite infection at 20 mg/kg, sc administered 72 hrs after infection; type: functional, organism-based; parameters: dose 20 mg/kg
Plasmodium gallinaceum [27] = test: Antimalarial activity against trophozoite-induced Plasmodium gallinaceum infected in white leghorn chicken assessed as increase in mean survival days of host at 5 mg/kg, sc administered 72 hrs after infection relative to control; type: functional; conditions: route subcutaneous
Plasmodium gallinaceum [28] = test: Antimalarial activity against trophozoite-induced Plasmodium gallinaceum infected in white leghorn chicken assessed as increase in mean survival days of host at 2.5 mg/kg, sc administered 72 hrs after infection relative to control; type: functional; conditions: route subcutaneous
Plasmodium gallinaceum [29] = test: Antimalarial activity against trophozoite-induced Plasmodium gallinaceum infected in white leghorn chicken assessed as increase in mean survival days of host at 1.25 mg/kg, sc administered 72 hrs after infection relative to control; type: functional; conditions: route subcutaneous
Plasmodium gallinaceum [30] = test: Antimalarial activity against trophozoite-induced Plasmodium gallinaceum infected in white leghorn chicken assessed as increase in mean survival days of host at 0.63 mg/kg, sc administered 72 hrs after infection relative to control; type: functional; conditions: route subcutaneous
Plasmodium gallinaceum [31] = test: Antimalarial activity against trophozoite-induced Plasmodium gallinaceum infected in white leghorn chicken assessed as disease cure from parasite infection at 320 mg/kg, sc administered 72 hrs after infection; type: functional, organism-based; parameters: dose 320 mg/kg
Plasmodium gallinaceum [32] = test: Antimalarial activity against trophozoite-induced Plasmodium gallinaceum infected in white leghorn chicken assessed as disease cure from parasite infection at 160 mg/kg, sc administered 72 hrs after infection; type: functional, organism-based; parameters: dose 160 mg/kg
Plasmodium gallinaceum [33] = test: Antimalarial activity against trophozoite-induced Plasmodium gallinaceum infected in white leghorn chicken assessed as disease cure from parasite infection at 80 mg/kg, sc administered 72 hrs after infection; type: functional, organism-based; parameters: dose 80 mg/kg
Plasmodium gallinaceum [34] = test: Antimalarial activity against trophozoite-induced Plasmodium gallinaceum infected in white leghorn chicken assessed as increase in mean survival days of host at 120 mg/kg, sc administered 72 hrs after infection relative to control; type: functional; conditions: route subcutaneous
Plasmodium gallinaceum [35] = test: Antimalarial activity against sporozoite-induced Plasmodium gallinaceum infected in white leghorn chicken assessed as disease cure from parasite infection at 320 mg/kg, sc administered 72 hrs after infection; type: functional, organism-based; parameters: dose 320 mg/kg
Gallus gallus = test: Toxicity in sporozoite-induced Plasmodium gallinaceum infected white leghorn chicken assessed as mortality at 480 mg/kg, sc administered 72 hrs after infection measured up to 6 days; type: organism-based; parameters: dose 480 mg/kg, route subcutaneous; conditions: in vivo
Plasmodium gallinaceum [36] = test: Antimalarial activity against sporozoite-induced Plasmodium gallinaceum infected in white leghorn chicken assessed as disease cure from parasite infection at 160 mg/kg, sc administered 72 hrs after infection; type: functional, organism-based; parameters: dose 160 mg/kg
Plasmodium gallinaceum [37] = test: Antimalarial activity against sporozoite-induced Plasmodium gallinaceum infected in white leghorn chicken assessed as disease cure from parasite infection at 80 mg/kg, sc administered 72 hrs after infection; type: functional, organism-based; parameters: dose 80 mg/kg
Plasmodium gallinaceum [38] = test: Antimalarial activity against sporozoite-induced Plasmodium gallinaceum infected in white leghorn chicken assessed as increase in mean survival days of host at 30 mg/kg, sc administered 72 hrs after infection relative to control; type: functional; conditions: route subcutaneous
Plasmodium gallinaceum [39] = test: Antimalarial activity against sporozoite-induced Plasmodium gallinaceum infected in white leghorn chicken assessed as increase in mean survival days of host at 15 mg/kg, sc administered 72 hrs after infection relative to control; type: functional; conditions: route subcutaneous
Plasmodium berghei [40] = test: Antimalarial activity against Plasmodium berghei infected in mouse assessed as increase in mean survival days of host at 20 mg/kg, sc administered 72 hrs after infection relative to control; type: functional; conditions: route subcutaneous
Plasmodium berghei [41] = test: Antimalarial activity against trophozoite-induced Plasmodium berghei infected in mouse assessed as daily dose required to suppression of 90% parasite infection administered with diet for 6 days; type: functional
Plasmodium berghei [42] = test: Ratio of quinine hydrochloride SD90 to compound SD90 for trophozoite-induced Plasmodium berghei infected in mouse assessed as daily dose required to suppression of 90% parasite infection administered with diet for 6 days; type: functional
Plasmodium gallinaceum [43] = test: Antimalarial activity against trophozoite-induced Plasmodium gallinaceum infected in white leghorn chicken assessed as increase in mean survival days of host at 320 mg/kg, sc administered 72 hrs after infection relative to control; type: functional; conditions: route subcutaneous
Plasmodium gallinaceum [44] = test: Antimalarial activity against trophozoite-induced Plasmodium gallinaceum infected in white leghorn chicken assessed as increase in mean survival days of host at 80 mg/kg, sc administered 72 hrs after infection relative to control; type: functional; conditions: route subcutaneous

With `CN(C)c1ccc(Sc2ccc3nc(N)nc(N)c3c2)cc1` the Activity (Plasmodium gallinaceum [1]) was “Active”, the Activity (Plasmodium gallinaceum [2]) was “Active” and the Activity (Plasmodium falciparum [3]) was greater than 50%. The Activity (Plasmodium falciparum [4]) was greater than 50%, the Activity (Plasmodium falciparum [5]) was greater than 50% and the MIC (Enterococcus faecalis) was less than 0.25 µg/mL. It also gave an MIC (Staphylococcus aureus [6]) of less than 0.25 µg/mL, an MIC (Staphylococcus aureus [7]) of less than 0.25 µg/mL and an MIC (Pseudomonas aeruginosa) greater than 25 µg/mL. For the same compound, the MIC (Escherichia coli) was 1.5 µg/mL (≈ 4.82 µM), the MIC (Shigella sonnei) was 10 µg/mL (≈ 32.1 µM) and the Activity (Plasmodium gallinaceum [8]) was “Active”. The Activity (Plasmodium gallinaceum [9]) was “Active”, the Activity (Plasmodium gallinaceum [10]) was “Active” and the Activity (Plasmodium gallinaceum [11]) was “Active”. The Activity (Plasmodium gallinaceum [12]) was “Active”, the Activity (Plasmodium gallinaceum [13]) was “Active” and the MST (Plasmodium berghei [14]) was 10.3 days. The Activity (Plasmodium berghei [15]) was “inactive”, the Activity (Plasmodium berghei [16]) was “Active” and the Activity (Plasmodium falciparum [17]) was greater than 50%. The MST (Plasmodium berghei [18]) was 9.7 days, the MST (Plasmodium berghei [19]) was 5.5 days and the MST (Plasmodium berghei [20]) was 2.5 days. For the same compound, the Activity (Plasmodium berghei [21]) was “Active”, the Activity (Plasmodium berghei [22]) was “Active” and the Activity (Plasmodium berghei [23]) was “Active”. The Activity (Plasmodium berghei [24]) was “Active”, the Activity (Plasmodium berghei [25]) was “Active” and the Activity (Plasmodium berghei [26]) was “Active”. The MST (Plasmodium gallinaceum [27]) was 19.8 days, the MST (Plasmodium gallinaceum [28]) was 12.6 days and the MST (Plasmodium gallinaceum [29]) was 10.4 days. For the same compound, the MST (Plasmodium gallinaceum [30]) was 6.6 days.

For `CC(=O)O.Nc1nc(N)c2cc(N(Cc3ccc(Cl)c(Cl)c3)N=O)ccc2n1`, the Activity (Plasmodium gallinaceum [31]) was “Active”, the Activity (Plasmodium gallinaceum [32]) was “Active” and the Activity (Plasmodium gallinaceum [33]) was “Active”. The MST (Plasmodium gallinaceum [34]) was 16.9 days, the Activity (Plasmodium gallinaceum [8]) was “Active” and the Activity (Plasmodium gallinaceum [35]) was “Active”. For the same compound, the Activity (Gallus gallus) was “Toxic”, the Activity (Plasmodium gallinaceum [9]) was “Active” and the Activity (Plasmodium gallinaceum [36]) was “Active”. For the same compound, the Activity (Plasmodium gallinaceum [10]) was “Active”, the Activity (Plasmodium gallinaceum [37]) was “Active” and the Activity (Plasmodium gallinaceum [11]) was “Active”. The MST (Plasmodium gallinaceum [38]) was 0 days, the Activity (Plasmodium gallinaceum [12]) was “Active” and the MST (Plasmodium gallinaceum [39]) was 0 days. For the same compound, the Activity (Plasmodium gallinaceum [13]) was “Active”, the MST (Plasmodium berghei [40]) was 22.4 days and the Activity (Plasmodium berghei [22]) was “Active”. For the same compound, the Activity (Plasmodium berghei [23]) was “Active”, the Activity (Plasmodium berghei [24]) was “Active” and the Activity (Plasmodium berghei [26]) was “Active”. For the same compound, the SD90 (Plasmodium berghei [41]) was 0.27 mg/kg/day, the Ratio (Plasmodium berghei [42]) was 270 and the MST (Plasmodium gallinaceum [43]) was 16.9 days. For the same compound, the MST (Plasmodium gallinaceum [44]) was 16.9 days.
